Experimental data from BindingDB's records for patent US10030020 (ABIDE THERAPEUTICS, INC., 2018).

Biological target: T1, Monoacylglycerol lipase ABHD6 (Mus musculus, UniProt Q8R2Y0)
T1 sequence (Q8R2Y0 whole entry): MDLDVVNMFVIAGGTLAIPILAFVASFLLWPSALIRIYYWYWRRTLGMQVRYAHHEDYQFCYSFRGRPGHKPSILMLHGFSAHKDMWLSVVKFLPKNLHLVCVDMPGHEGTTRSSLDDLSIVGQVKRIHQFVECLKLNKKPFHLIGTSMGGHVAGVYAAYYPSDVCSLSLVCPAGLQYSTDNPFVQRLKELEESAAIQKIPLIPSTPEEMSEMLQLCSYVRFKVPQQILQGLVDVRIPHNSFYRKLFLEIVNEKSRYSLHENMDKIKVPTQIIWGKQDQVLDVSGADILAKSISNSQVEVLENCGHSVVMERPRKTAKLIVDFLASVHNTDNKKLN
Assay: In Vitro Competitive Activity-Based Protein Profiling
Experimental: Proteomes (mouse brain membrane fraction or cell lysates) (50 μL, 1.0 mg/mL total protein concentration) were preincubated with varying concentrations of inhibitors at 37° C. After 30 min, FP Rh (1.0 μL, 50 μM in DMSO) was added and the mixture was incubated for another 30 min at 37° C. Reactions were quenched with SDS loading buffer (50 μL-4×) and run on SDS-PAGE.

IC50: > 1 µM
SMILES: O=C(OC(C(F)(F)F)C(F)(F)F)N1CCC2(CCCN2Cc2ccc(OCCN3CCOCC3)cc2)CC1 [US10030020, Example 14]
